Experiments:
[1] = target: phosphorylated FGFR3 (SEQ ID NO: 5, amino acids 449 to 759) (Homo sapiens (Human), UniProt P22607); experiment: FGFR enzyme binding assay (HTRF tracer displacement), FGFR3; settings: 5 nM phosphorylated FGFR3, average of multiple determinations if made
Summary of the method: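 Compounds were tested for displacement of a tracer from human FGFR kinase in a time-resolved FRET binding format. After 60 minutes at 22° C, signal was read at two wavelengths and converted to percent of control, normalised between untreated wells and 1 μM reference inhibitor.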

[2] = target: recombinant human FGFR3 (amino acids R397-T806) (Homo sapiens (Human), UniProt P22607); experiment: FGFR3 enzyme activity assay (LanthaScreen TR-FRET); type: biochemical; settings: 25 μM ATP, 10 min incubation at 22° C., average of multiple determinations if made, read-out: FGFR3 Enz FRET IC50
Summary of the method: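 GST-HIS6-tagged human FGFR3 (R397-T806) was reacted with 100 nM Alexa Fluor 647-Poly-GT substrate and 25 μM ATP plus compound in HEPES/MgCl2/Triton buffer, pH 7.5, 2% DMSO, for 10 min at 22 °C.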

[3] = target: FGFR1 (SEQ ID NO: 1, amino acids 458-765) (Homo sapiens (Human), UniProt P11362); experiment: LC/MS FGFR1 kobs assay (covalent protein modification); type: binding; settings: 500 nM FGFR1, 3 μM compound
Summary of the method: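 Covalent labeling of FGFR1 kinase domain (aa 458-765) tracked over time by intact-protein LC/MS after formic acid quench. kobs derived by fitting DMSO-normalized percent unmodified FGFR1 to an exponential decay model.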

[4] = target: HEK-293 cells transfected with dox-inducible human wild type FGFR2 (Homo sapiens (Human), UniProt P21802); experiment: FGFR2 pFGFR cell assay (ELISA); type: cell-based; settings: HEK-293 dox-inducible FGFR2, 1 hour compound, 30 ng/ml FGF-acidic
Description: FGFR2 pFGFR Cell Assay: • HEK-293 cells transfected with dox-inducible human wild type FGFR2 (SEQ ID NO: 3) were plated in a collagen or poly-D-lysine coated 96 well flat bottom plates at 4×10^5 cells/well in complete DMEM medium containing 10% FBS and 1 μg/ml doxycycline and allowed to attach for 24 h at 37° C., 5% CO2. Cells were treated with compound using 1:3 serial dilutions with a maximum final concentration of 5 μM. Compound was incubated on cells for 1 hour at 37° C., 5% CO2. Cells were then stimulated with a final concentration of 30 ng/ml human FGF-acidic (R&D Systems Cat number 232-FA/CF) for 5 minutes at 37° C., 5% CO2. Medium was removed and cells were lysed with lysis buffer containing phosphatase and protease inhibitors. Phospho FGFR2 was measured by ELISA (R&D Systems cat. no. DYC684). The ELISA captures total FGFR2 and detects total phospho tyrosine. Optical density was measured for each well using a Versamax reader at a wavelength of 450 nm. 100 POC was determined using no test compounds and 0 POC was determined using a control compound. The POC values were fit to a 4-parameter logistic curve as a function of the concentration of the compound, and the IC50 value is the point where the curve crosses 50 POC.

[5] = target: HEK-293 cells transfected with dox-inducible human wild type FGFR3 (Homo sapiens (Human), UniProt P22607); experiment: FGFR3 pERK cell assay; type: cell-based; settings: HEK-293 dox-inducible FGFR3, 1 hour compound, 100 ng/ml FGF-acidic; maximum concentration 5 μM
Summary of the method: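 Doxycycline-induced cells preincubated 1 h at 37 °C with compound (1:3 dilutions, top 5 μM final), then stimulated 5 min with 100 ng/ml FGF-acidic. Lysate phospho-ERK1/2 measured by MSD sandwich assay; IC50 at 50 POC from 4-parameter fit, normalised to no-compound and control-compound wells.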

recombinant human FGFR3 (amino acids R397-T806), sequence (P22607 397-806): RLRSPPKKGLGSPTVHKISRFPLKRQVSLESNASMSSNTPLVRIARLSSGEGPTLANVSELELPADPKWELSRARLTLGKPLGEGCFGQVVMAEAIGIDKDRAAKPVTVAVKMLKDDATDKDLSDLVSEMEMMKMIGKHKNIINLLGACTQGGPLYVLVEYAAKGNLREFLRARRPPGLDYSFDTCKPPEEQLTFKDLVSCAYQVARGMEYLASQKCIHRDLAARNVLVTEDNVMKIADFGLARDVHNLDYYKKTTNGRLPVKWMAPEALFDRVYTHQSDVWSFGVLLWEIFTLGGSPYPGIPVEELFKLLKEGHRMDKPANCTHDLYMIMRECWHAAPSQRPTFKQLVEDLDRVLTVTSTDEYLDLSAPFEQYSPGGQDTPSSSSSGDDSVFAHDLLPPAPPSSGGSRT
FGFR1 (SEQ ID NO: 1, amino acids 458-765), sequence (P11362 458-765): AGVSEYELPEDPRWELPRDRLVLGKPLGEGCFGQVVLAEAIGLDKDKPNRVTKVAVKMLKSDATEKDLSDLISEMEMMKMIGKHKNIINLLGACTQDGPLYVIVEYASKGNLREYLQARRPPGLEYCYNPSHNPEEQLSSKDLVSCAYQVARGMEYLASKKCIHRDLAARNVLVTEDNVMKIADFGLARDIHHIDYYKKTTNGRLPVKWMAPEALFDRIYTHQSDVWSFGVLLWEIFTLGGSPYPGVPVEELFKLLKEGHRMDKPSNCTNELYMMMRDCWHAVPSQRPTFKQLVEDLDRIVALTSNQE
HEK-293 cells transfected with dox-inducible human wild type FGFR3, sequence (P22607 23-806): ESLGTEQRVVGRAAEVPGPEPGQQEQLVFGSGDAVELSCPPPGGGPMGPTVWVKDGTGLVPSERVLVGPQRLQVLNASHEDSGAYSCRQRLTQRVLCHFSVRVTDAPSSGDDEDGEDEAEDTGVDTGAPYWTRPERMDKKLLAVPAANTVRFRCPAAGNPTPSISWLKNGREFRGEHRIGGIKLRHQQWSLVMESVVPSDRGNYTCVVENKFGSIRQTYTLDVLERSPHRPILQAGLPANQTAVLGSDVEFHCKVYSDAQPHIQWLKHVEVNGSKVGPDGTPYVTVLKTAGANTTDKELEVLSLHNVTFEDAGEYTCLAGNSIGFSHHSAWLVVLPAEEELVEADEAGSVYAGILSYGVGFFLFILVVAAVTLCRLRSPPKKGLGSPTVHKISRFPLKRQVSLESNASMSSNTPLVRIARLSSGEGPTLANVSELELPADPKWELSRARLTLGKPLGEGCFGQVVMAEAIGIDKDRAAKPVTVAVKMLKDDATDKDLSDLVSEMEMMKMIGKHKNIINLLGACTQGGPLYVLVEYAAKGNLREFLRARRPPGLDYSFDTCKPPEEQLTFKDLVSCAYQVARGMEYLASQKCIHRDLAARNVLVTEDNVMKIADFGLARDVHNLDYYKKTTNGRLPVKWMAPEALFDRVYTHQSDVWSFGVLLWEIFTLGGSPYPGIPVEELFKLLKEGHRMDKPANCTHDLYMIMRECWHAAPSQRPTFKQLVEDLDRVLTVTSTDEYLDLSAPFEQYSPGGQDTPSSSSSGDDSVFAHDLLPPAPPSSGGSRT
phosphorylated FGFR3 (SEQ ID NO: 5, amino acids 449 to 759), sequence (P22607 449-759): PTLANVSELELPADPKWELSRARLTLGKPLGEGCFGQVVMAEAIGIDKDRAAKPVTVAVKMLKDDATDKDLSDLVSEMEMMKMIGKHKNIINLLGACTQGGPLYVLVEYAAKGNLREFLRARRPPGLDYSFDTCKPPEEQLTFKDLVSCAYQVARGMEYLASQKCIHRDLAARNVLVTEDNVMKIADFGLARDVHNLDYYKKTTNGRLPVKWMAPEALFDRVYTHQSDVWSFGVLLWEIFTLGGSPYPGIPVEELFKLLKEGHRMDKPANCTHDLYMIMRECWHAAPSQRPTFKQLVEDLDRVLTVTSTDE
HEK-293 cells transfected with dox-inducible human wild type FGFR2, sequence (P21802 22-821): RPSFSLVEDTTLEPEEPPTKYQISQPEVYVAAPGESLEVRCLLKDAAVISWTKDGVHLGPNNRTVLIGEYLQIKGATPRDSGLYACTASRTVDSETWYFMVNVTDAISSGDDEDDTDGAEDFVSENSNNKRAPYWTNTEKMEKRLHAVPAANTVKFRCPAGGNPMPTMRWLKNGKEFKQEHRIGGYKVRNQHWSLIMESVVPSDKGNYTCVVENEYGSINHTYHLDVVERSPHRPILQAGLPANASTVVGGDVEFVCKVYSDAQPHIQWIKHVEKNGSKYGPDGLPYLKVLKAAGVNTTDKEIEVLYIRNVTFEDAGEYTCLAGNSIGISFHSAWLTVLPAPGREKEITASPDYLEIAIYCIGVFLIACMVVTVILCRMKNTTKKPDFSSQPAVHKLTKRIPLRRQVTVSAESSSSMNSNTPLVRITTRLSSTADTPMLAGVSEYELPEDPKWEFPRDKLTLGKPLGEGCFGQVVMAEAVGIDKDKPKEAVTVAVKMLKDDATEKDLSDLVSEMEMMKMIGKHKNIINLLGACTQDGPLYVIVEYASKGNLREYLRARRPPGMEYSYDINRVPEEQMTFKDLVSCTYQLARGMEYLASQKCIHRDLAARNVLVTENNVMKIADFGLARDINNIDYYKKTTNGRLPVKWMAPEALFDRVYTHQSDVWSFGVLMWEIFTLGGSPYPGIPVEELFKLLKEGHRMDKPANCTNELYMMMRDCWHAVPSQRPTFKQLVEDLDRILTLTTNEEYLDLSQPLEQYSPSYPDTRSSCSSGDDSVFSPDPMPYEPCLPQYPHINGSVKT

| Structure (SMILES) | IC50 [1] [µM] | IC50 [2] [µM] | FGFR1 Enz kobs [3] [min⁻¹] | IC50 [4] [µM] | IC50 [5] [µM] |
| --- | --- | --- | --- | --- | --- |
| C=CC(=O)N(C)c1ccc(CN2CCC(n3cc(-c4cc(OC)c5c(C#N)cnn5c4)cn3)CC2)cc1 [Example 10, N-(4-((4-(4-(3-cyano-4-methoxypyrazolo[1,5-a]pyridin-6-yl)-1H-pyrazol-1-yl)piperidin-1-yl)methyl)phenyl)-N-methylacrylamide] | 0.004 | 0.006 | 0.0034 | 0.036 | – |
| COC/C=C/C(=O)N1CC(F)(C(=O)N2CCC(n3ncc(-c4cc(OC)c5c(C#N)cnn5c4)c3C)CC2)C1 [Example 154, (E)-6-(1-(1-(3-fluoro-1-(4-methoxybut-2-enoyl)azetidine-3-carbonyl)piperidin-4-yl)-5-methyl-1H-pyrazol-4-yl)-4-methoxypyrazolo [1,5-a]pyridine-3-carbonitrile] | 0.019 | 0.019 | 0.00081 | 0.327 | 0.122 |
| C=CC(=O)N1CC(CN2CCC(n3ncc(-c4cc(OC)c5c(Cl)cnn5c4)c3C)CC2)(OC)C1 [Example 119, 1-(3-((4-(4-(3-chloro-4-methoxypyrazolo[1,5-a]pyridin-6-yl)-5-methyl-1H-pyrazol-1-yl)piperidin-1-yl)methyl)-3-methoxyazetidin-1-yl)prop-2-en-1-one] | 0.008 | 0.039 | 0.00359 | 0.322 | 0.05 |
| C=CC(=O)N1CC(C(=O)N2CCN(c3ccc(-c4cc(OC)c5c(C#N)cnn5c4)cn3)CC2)C1 [Example 111, 6-(6-(4-(1-acryloylazetidine-3-carbonyl)piperazin-1-yl)pyridin-3-yl)-4-methoxypyrazolo[1,5-a]pyridine-3-carbonitrile] | 0.011 | 0.003 | 0.00263 | 0.348 | 0.034 |
| C=CC(=O)Nc1ccc(CN2CCC(n3cc(-c4cc(OC)c5c(C#N)cnn5c4)cn3)CC2)cc1 [Example 9, N-(4-((4-(4-(3-cyano-4-methoxypyrazolo[1,5-a]pyridin-6-yl)-1H-pyrazol-1-yl)piperidin-1-yl)methyl)phenyl)acrylamide] | 0.005 | 0.004 | 0.0059 | 0.037 | – |
| COc1cc(-c2cnn(C3CCN(C(=O)C4(OC)CN(C(=O)/C=C/CN(C)C)C4)CC3)c2C)cn2ncc(C#N)c12 [Example 158, (E)-6-(1-(1-(1-(4-(dimethylamino)but-2-enoyl)-3-methoxyazetidine-3-carbonyl)piperidin-4-yl)-5-methyl-1H-pyrazol-4-yl)-4-methoxypyrazolo [1,5-a]pyridine-3-carbonitrile] | 0.002 | 0.008 | 0.00588 | 1.55 | 0.108 |
| C=CC(=O)N1CC(CN2C[C@H]3C[C@@H]2CN3c2ccc(-c3cc(OC)c4c(C#N)cnn4c3)cn2)C1 [Example 108, 6-(6-((1R,4R)-5-((1-acryloylazetidin-3-yl)methyl)-2,5-diazabicyclo[2.2.1]heptan-2-yl)pyridin-3-yl)-4-methoxypyrazolo[1,5-a]pyridine-3-carbonitrile] | 0.011 | 0.01 | 0.00291 | 0.236 | 0.047 |
| C=CC(=O)N1CC(CN2CCC(n3ncc(-c4cc(OC)c5c(Cl)cnn5c4)c3C)CC2)C1 [Example 118, 1-(3-((4-(4-(3-chloro-4-methoxypyrazolo[1,5-a]pyridin-6-yl)-5-methyl-1H-pyrazol-1-yl)piperidin-1-yl)methyl)azetidin-1-yl)prop-2-en-1-one] | 0.009 | 0.041 | 0.00303 | 0.267 | 0.062 |
| C=CC(=O)N1CCN(C(=O)N2CCC(n3cc(-c4cc(OC)c5c(C#N)cnn5c4)cn3)CC2)C[C@@H]1CC#N [Example 135, (S)-6-(1-(1-(4-acryloyl-3-(cyanomethyl)piperazine-1-carbonyl)piperidin-4-yl)-1H-pyrazol-4-yl)-4-methoxypyrazolo[1,5-a]pyridine-3-carbonitrile] | 0.003 | 0.006 | 0.0029 | 0.083 | 0.04 |
| C=CC(=O)N1CC(OC)(C(=O)N2CCC(n3ncc(-c4cc(OC)c5c(Cl)cnn5c4)c3C)CC2)C1 [Example 117, 1-(3-(4-(4-(3-chloro-4-methoxypyrazolo[1,5-a]pyridin-6-yl)-5-methyl-1H-pyrazol-1-yl)piperidine-1-carbonyl)-3-methoxyazetidin-1-yl)prop-2-en-1-one] | 0.019 | 0.043 | 0.00318 | 0.283 | 0.036 |
| C=CC(=O)N1CCC(n2cc(-c3cc(OC)c4c(C#N)cnn4c3)cn2)CC1 [Example 11, 6-(1-(1-acryloylpiperidin-4-yl)-1H-pyrazol-4-yl)-4-methoxypyrazolo[1,5-a]pyridine-3-carbonitrile] | 0.025 | 0.007 | 0.0002 | 0.014 | – |

Other lines, results leading:

| IC50 [1] [µM] | IC50 [2] [µM] | FGFR1 Enz kobs [3] [min⁻¹] | IC50 [4] [µM] | IC50 [5] [µM] | Structure (SMILES) |
| --- | --- | --- | --- | --- | --- |
| 0.005 | 0.024 | 0.00471 | 0.263 | 0.05 | COc1cc(-c2cnn(C3CCN(C(=O)C4(OC)CN(C(=O)/C=C/CN(C)C)C4)CC3)c2C)cn2ncc(Cl)c12 [Example 171, (E)-1-(3-(4-(4-(3-chloro-4-methoxypyrazolo [1,5-a]pyridin-6-yl)-5-methyl-1H-pyrazol-1-yl)piperidine-1-carbonyl)-3-methoxyazetidin-1-yl)-4-(dimethylamino)but-2-en-1-one] |
| 0.003 | 0.002 | 0.00249 | 0.292 | 0.034 | COc1cc(-c2cnn(C3CCN(C(=O)C4CN(C(=O)/C=C/CCl)C4)CC3)c2)cn2ncc(C#N)c12 [Example 181, (E)-6-(1-(1-(1-(4-chlorobut-2-enoyl)azetidine-3-carbonyl)piperidin-4-yl)-1H-pyrazol-4-yl)-4-methoxypyrazolo[1,5-a]pyridine-3-carbonitrile] |
| 0.001 | 0.003 | 0.01248 | 1.68 | 0.236 | COc1cc(-c2cnn(C3CCN(C(=O)C4CN(C(=O)C#CCO)C4)CC3)c2)cn2ncc(C#N)c12 [Example 179, 6-(1-(1-(1-(4-hydroxybut-2-ynoyl)azetidine-3-carbonyl)piperidin-4-yl)-1H-pyrazol-4-yl)-4-methoxypyrazolo[1,5-a]pyridine-3-carbonitrile] |
| 0.003 | 0.01 | 0.00408 | 0.451 | 0.03 | COc1cc(-c2cnn(C3CCN(CC4(OC)CN(C(=O)/C=C/CN(C)C)C4)CC3)c2C)cn2ncc(C#N)c12 [Example 159, (E)-6-(1-(1-((1-(4-(dimethylamino)but-2-enoyl)-3-methoxyazetidin-3-yl)methyl)piperidin-4-yl)-5-methyl-1H-pyrazol-4-yl)-4-methoxypyrazolo [1,5-a]pyridine-3-carbonitrile] |
| 0.005 | 0.017 | 0.00774 | 0.171 | 0.055 | COc1cc(-c2cnn(C3CCN(C(=O)C4(F)CN(C(=O)/C=C/CN(C)C)C4)CC3)c2C)cn2ncc(Cl)c12 [Example 170, (E)-1-(3-(4-(4-(3-chloro-4-methoxypyrazolo [1,5-a]pyridin-6-yl)-5-methyl-1H-pyrazol-1-yl)piperidine-1-carbonyl)-3-fluoroazetidin-1-yl)-4-(dimethylamino)but-2-en-1-one] |

— patent publication US12180207B2 (ARRAY BIOPHARMA INC., priority 2018, dated 2024)
